Assays:
Type in all cases: in vivo
[1] = system: barnyardgrass (Echinochloa crus-qalli L.); test: Test Example 1: soybean field, soil treatment, metobromuron + chlorpropham; conditions: soil, read-out: Growth inhibition rate of barnyardgrass (%) Measured value
Description: When the herbicidal activity in a case where two active ingredients are combined, is larger than the simple sum of the respective herbicidal activities of the two active ingredients (the expected activity), it is called a synergistic effect. The activity expected by the combination of two active ingredients can be calculated as follows (Colby S. R., “Weed”, vol. 15, p. 20-22, 1967). E=α+β−(α×β[…]) where α: growth inhibition rate when treated with x (g/ha) of herbicide X, • β: growth inhibition rate when treated with y (g/ha) of herbicide Y, • E: growth inhibition rate expected when treated with x (g/ha) of herbicide X and y (g/ha) of herbicide Y. […]
On the 19th day after treatment, the state of growth of barnyardgrass was visually observed and evaluated in accordance with the following standards. The growth inhibition rate (%) [measured value] and the growth inhibition rate (%) [calculated value] calculated by the Colby's method, are shown in Table 2. […]

[2] = system: barnyardgrass (Echinochloa crus-qalli L.); test: Test Example 5: adzuki bean field, soil treatment, metobromuron + fluazifop-P-butyl; conditions: Echinochloa, soil, read-out: Growth inhibition rate of barnyardgrass (%) Measured value
Description: (§1) When the herbicidal activity in a case where two active ingredients are combined, is larger than the simple sum of the respective herbicidal activities of the two active ingredients (the expected activity), it is called a synergistic effect. The activity expected by the combination of two active ingredients can be calculated as follows (Colby S. R., “Weed”, vol. 15, p. 20-22, 1967). E=α+β−(α×β[…]) where α: growth inhibition rate when treated with x (g/ha) of herbicide X, • β: growth inhibition rate when treated with y (g/ha) of herbicide Y, • E: growth inhibition rate expected when treated with x (g/ha) of herbicide X and y (g/ha) of herbicide Y.
(§2) On the 19th day after treatment, the state of growth of barnyardgrass was visually observed and evaluated in accordance with the following standards. The growth inhibition rate (%) [measured value] and the growth inhibition rate (%) [calculated value] calculated by the Colby's method, are shown in Table 2.
(§3) Growth inhibition rate (%)=inhibition rate) (%) of 0 (equivalent to the non-treated area) to 100 (complete kill) […]
On the 39th day after treatment, the state of growth of barnyardgrass (Echinochloa crus-qalli L.) which occurred naturally, was visually observed and evaluated in the same manner as in Test Example 1.

[3] = system: Oriental lady's thumb (Persicaria longiseta); test: Test Example 7: common bean field, soil treatment, metobromuron + trifluralin; conditions: soil, read-out: Growth inhibition rate of Oriental lady's thumb (%) Measured value
Description: as §1, §2, §3
On the 49th day after treatment, the state of growth of Oriental lady's thumb (Persicaria longiseta) which occurred naturally, was visually observed and evaluated in the same manner as in Test Example 1.

[4] = system: common lambsquarters (Chenopodium album L.); test: Test Example 8: corn field, soil treatment, metobromuron + S-metolachlor; conditions: soil, read-out: Growth inhibition rate of common lambsquarters (%) Measured value
Description: as §1, §2, §3
On the 28th day after treatment, the state of growth of common lambsquarters (Chenopodium album L.) which occurred naturally, was visually observed and evaluated in the same manner as in Test Example 1.

[5] = system: common purslane (Portulaca oleracea L.); test: Test Example 12: corn field, soil treatment, metobromuron + nicosulfuron; conditions: soil, read-out: Growth inhibition rate of common purslane (%) Measured value
Description: as §1, §2, §3
On the 30th day after treatment, the state of growth of common purslane (Portulaca oleracea L.) which occurred naturally, was visually observed and evaluated in the same manner as in Test Example 1.

[6] = system: barnyardgrass (Echinochloa crus-qalli L.); test: Test Example 21: pot, soil treatment, metobromuron + prometryn; conditions: soil, read-out: Growth inhibition rate of barnyardgrass (%) Measured value
Description: as §1, §2
(§4) Growth inhibition rate (%)=inhibition rate) (%) of 0 (equivalent to the non-treated area) to 100 (complete kill)
Soil was put into a 1/300,000 ha pot, and seeds of barnyardgrass (Echinochloa crus-qalli L.) were sown. On the day after seeding, predetermined amounts of SC containing metobromuron as active ingredient (same as in Test Example 1) and WP containing prometryn as active ingredient (trade name: Gesagard 50, manufactured by Nippon Kayaku Co., Ltd.) were diluted with water corresponding to 1,000 L per hectare and applied for soil treatment.
On the 21st day after treatment, the state of growth of barnyardgrass was visually observed and evaluated in the same manner as in Test Example 1.

[7] = system: common lambsquarters (Chenopodium album L.); test: Test Example 24: pot, soil treatment, metobromuron + trifluralin; conditions: soil, read-out: Growth inhibition rate of common lambsquarters (%) Measured value
Description: as §1, §2, §4
(§5) Soil was put into a 1/300,000 ha pot, and seeds of common lambsquarters (Chenopodium album L.) were sown. On the day after seeding, predetermined amounts of SC containing metobromuron as active ingredient (same as in Test Example 1) and EC containing trifluralin as active ingredient (same as in Test Example 4) were diluted with water corresponding to 1,000 L per hectare and applied for soil treatment.
On the 21st day after treatment, the state of growth of common lambsquarters was visually observed and evaluated in the same manner as in Test Example 1.

[8] = system: black nightshade (Solanum nigrum L.); test: Test Example 26: pot, soil treatment, metobromuron + prosulfocarb; conditions: soil, read-out: Growth inhibition rate of black nightshade (%) Measured value
Description: as §1, §2, §4
as §5, with “black nightshade (Solanum nigrum” for “common lambsquarters (Chenopodium album”, “prosulfocarb” for “trifluralin”, “(trade name: BOXER NYUZAI, manufactured by Syngenta)” for “(same as in Test Example 4)”
(§6) On the 21st day after treatment, the state of growth of black nightshade was visually observed and evaluated in the same manner as in Test Example 1.

[9] = system: black nightshade (Solanum nigrum L.); test: Test Example 27: pot, soil treatment, metobromuron + flufenacet; conditions: soil, read-out: Growth inhibition rate of black nightshade (%) Measured value
Description: as §1, §2, §4
as §5, with “black nightshade (Solanum nigrum” for “common lambsquarters (Chenopodium album”, “prosulfocarb” for “trifluralin”, “(trade name: BOXER NYUZAI, manufactured by Syngenta)” for “(same as in Test Example 4)”
as §6
The test was carried out in the same manner as in Test Example 26 except that EC containing prosulfocarb as active ingredient was changed to SC containing flufenacet as active ingredient (trade name: Cadou, manufactured by Bayer CropScience), to obtain the results as shown in Table 28.

Compound: CON(C)C(=O)Nc1ccc(Br)cc1 [Metobromuron, 3-(4-bromophenyl)-1-methoxy-1-methylurea]
- inhibition at 1000 g/ha [1]: 58%
- inhibition at 1000 g/ha [2]: 53%
- inhibition at 1500 g/ha [3]: 10%
- inhibition at 1000 g/ha [4]: 78%
- inhibition at 1000 g/ha [5]: 85%
- inhibition at 750 g/ha [6]: 20%
- inhibition at 1000 g/ha [6]: 43%
- inhibition at 1500 g/ha [6]: 72%
- inhibition at 375 g/ha [7]: 50%
- inhibition at 250 g/ha [8]: 25%
- inhibition at 375 g/ha [8]: 50%
- inhibition at 562.5 g/ha [8]: 68%
- inhibition at 250 g/ha [9]: 25%
- inhibition at 375 g/ha [9]: 50%
- inhibition at 562.5 g/ha [9]: 68%
